Measured values published in ChEMBL document CHEMBL5724914, “Linking interpersonal differences in gut microbiota composition and drug biotransformation activity” (2024).

Key:
[1] = (§1) The drug is tested on Z-017 corresponding to mouse gut metagenome with ENA study accession number: PRJEB37062 and ENA sample accession number: ERS12561816 for biotransformation under anaerobic condition. The drug concentrations were measured over 9 timepoints collected between 0 and 24 hours of incubation by liquid-chromatography-coupled mass spectrometry (LC–MS); details: 2 µM
[2] = human gut metagenome, 24 h, 2 µM
[3] = as §1, with “WLS-086” for “Z-017”, “human” for “mouse”, “ERS12561752” for “ERS12561816”; details: 2 µM
[4] = human gut metagenome, 24 h, 2 µM; remark: listed apart in the source
[5] = as §1, with “Z-010” for “Z-017”, “to” for “to mouse gut”, “ERS12561810” for “ERS12561816”; details: 2 µM
[6] = as §1, with “Z-024” for “Z-017”, “pig” for “mouse”, “ERS12561823” for “ERS12561816”; details: 2 µM
[7] = human gut metagenome, 24 h, 2 µM; remark: listed apart in the source
[8] = as §1, with “Z-011” for “Z-017”, “ERS12561811” for “ERS12561816”; details: 2 µM
[9] = human gut metagenome, 24 h, 2 µM; remark: listed apart in the source
[10] = as §1, with “Z-016” for “Z-017”, “ERS12561815” for “ERS12561816”; details: 2 µM
[11] = as §1, with “Z-026” for “Z-017”, “to” for “to mouse gut”, “ERS12561825” for “ERS12561816”; details: 2 µM
[12] = human gut metagenome, 24 h, 2 µM; remark: listed apart in the source
[13] = as §1, with “Z-012” for “Z-017”, “to” for “to mouse gut”, “ERS12561812” for “ERS12561816”; details: 2 µM
[14] = as §1, with “Z-005” for “Z-017”, “to” for “to mouse gut”, “ERS12561805” for “ERS12561816”; details: 2 µM
[15] = human gut metagenome, 24 h, 2 µM; remark: listed apart in the source
[16] = as §1, with “Z-028” for “Z-017”, “ERS12561827” for “ERS12561816”; details: 2 µM
[17] = human gut metagenome, 24 h, 2 µM; remark: listed apart in the source
[18] = human gut metagenome, 24 h, 2 µM; remark: listed apart in the source
[19] = as §1, with “Z-025” for “Z-017”, “rabbit” for “mouse”, “ERS12561824” for “ERS12561816”; details: 2 µM
[20] = human gut metagenome, 24 h, 2 µM; remark: listed apart in the source
Note: call rule not given here.

Row | Structure (SMILES) | Bacterial Biotransformation [1] | Bacterial Biotransformation [2] | Bacterial Biotransformation [3] | Bacterial Biotransformation [4] | Bacterial Biotransformation [5] | Bacterial Biotransformation [6] | Bacterial Biotransformation [7] | Bacterial Biotransformation [8] | Bacterial Biotransformation [9] | Bacterial Biotransformation [10] | Bacterial Biotransformation [11] | Bacterial Biotransformation [12] | Bacterial Biotransformation [13] | Bacterial Biotransformation [14] | Bacterial Biotransformation [15] | Bacterial Biotransformation [16] | Bacterial Biotransformation [17] | Bacterial Biotransformation [18] | Bacterial Biotransformation [19] | Bacterial Biotransformation [20]
1 | C=CC[C@@H]1/C=C(\C)C[C@H](C)C[C@H](OC)[C@H]2O[C@@](O)(C(=O)C(=O)N3CCCC[C@H]3C(=O)O[C@H](/C(C)=C/[C@@H]3CC[C@@H](O)[C@H](OC)C3)[C@H](C)[C@@H](O)CC1=O)[C@H](C)C[C@@H]2OC.O [TACROLIMUS] | Compound NOT metabolized | Compound NOT metabolized | Compound metabolized | Compound metabolized | Compound NOT metabolized | Compound NOT metabolized | Compound metabolized | Compound NOT metabolized | Compound metabolized | Compound NOT metabolized | Compound NOT metabolized | Compound metabolized | Compound NOT metabolized | Compound NOT metabolized | Compound metabolized | Compound NOT metabolized | Compound metabolized | Compound metabolized | Compound NOT metabolized | Compound metabolized
2 | CN(CCOc1ccc(CC2SC(=O)NC2=O)cc1)c1ccccn1.O=C(O)/C=C\C(=O)O (stereo not given) [ROSIGLITAZONE MALEATE] | Compound NOT metabolized | Compound metabolized | Compound NOT metabolized | Compound metabolized | Compound NOT metabolized | Compound NOT metabolized | Compound metabolized | Compound NOT metabolized | Compound metabolized | Compound NOT metabolized | Compound NOT metabolized | Compound NOT metabolized | Compound NOT metabolized | Compound NOT metabolized | Compound NOT metabolized | Compound NOT metabolized | Compound metabolized | Compound metabolized | Compound metabolized | Compound NOT metabolized
3 | N=C(N)NC(=O)Cc1c(Cl)cccc1Cl [GUANFACINE] | Compound NOT metabolized | Compound NOT metabolized | Compound NOT metabolized | Compound NOT metabolized | Compound NOT metabolized | Compound NOT metabolized | Compound NOT metabolized | Compound NOT metabolized | Compound NOT metabolized | Compound NOT metabolized | Compound NOT metabolized | Compound NOT metabolized | Compound NOT metabolized | Compound NOT metabolized | Compound NOT metabolized | Compound NOT metabolized | Compound NOT metabolized | Compound NOT metabolized | Compound NOT metabolized | Compound NOT metabolized
4 | CCN1CCCC1CNC(=O)c1cc(S(=O)(=O)CC)c(N)cc1OC (stereo not given) [AMISULPRIDE] | Compound NOT metabolized | Compound NOT metabolized | Compound metabolized | Compound metabolized | Compound NOT metabolized | Compound NOT metabolized | Compound metabolized | Compound NOT metabolized | Compound NOT metabolized | Compound NOT metabolized | Compound NOT metabolized | Compound NOT metabolized | Compound NOT metabolized | Compound NOT metabolized | Compound NOT metabolized | Compound NOT metabolized | Compound metabolized | Compound NOT metabolized | Compound NOT metabolized | Compound NOT metabolized
5 | COc1ccc(CN2CCNCC2)c(OC)c1OC.Cl.Cl [TRIMETAZIDINE DIHYDROCHLORIDE] | Compound NOT metabolized | Compound NOT metabolized | Compound NOT metabolized | Compound NOT metabolized | Compound NOT metabolized | Compound NOT metabolized | Compound NOT metabolized | Compound NOT metabolized | Compound NOT metabolized | Compound NOT metabolized | Compound NOT metabolized | Compound NOT metabolized | Compound NOT metabolized | Compound NOT metabolized | Compound NOT metabolized | Compound NOT metabolized | Compound NOT metabolized | Compound NOT metabolized | Compound NOT metabolized | Compound NOT metabolized
6 | Nc1nc(N)nc(-c2cc(Cl)ccc2Cl)n1.O=C(O)/C=C\C(=O)O [IRSOGLADINE MALEATE] | Compound NOT metabolized | Compound NOT metabolized | Compound metabolized | Compound metabolized | Compound NOT metabolized | Compound NOT metabolized | Compound metabolized | Compound NOT metabolized | Compound NOT metabolized | Compound NOT metabolized | Compound NOT metabolized | Compound NOT metabolized | Compound NOT metabolized | Compound NOT metabolized | Compound NOT metabolized | Compound NOT metabolized | Compound NOT metabolized | Compound NOT metabolized | Compound metabolized | Compound NOT metabolized
7 | CC(=O)OCC(=O)[C@@]1(OC(C)=O)[C@@H](C)C[C@H]2[C@@H]3C[C@H](F)C4=CC(=O)C=C[C@]4(C)[C@@]3(F)[C@@H](O)C[C@@]21C [DIFLORASONE DIACETATE] | Compound metabolized | Compound metabolized | Compound metabolized | Compound metabolized | Compound metabolized | Compound NOT metabolized | Compound metabolized | Compound metabolized | Compound metabolized | Compound metabolized | Compound NOT metabolized | Compound metabolized | Compound metabolized | Compound metabolized | Compound metabolized | Compound metabolized | Compound metabolized | Compound metabolized | Compound NOT metabolized | Compound metabolized
8 | C#C[C@]1(OC(C)=O)CC[C@H]2[C@@H]3CCC4=C[C@@H](OC(C)=O)CC[C@@H]4[C@H]3CC[C@@]21C [ETHYNODIOL DIACETATE] | Compound metabolized | Compound metabolized | Compound metabolized | Compound metabolized | Compound metabolized | Compound metabolized | Compound metabolized | Compound metabolized | Compound NOT metabolized | Compound metabolized | Compound metabolized | Compound metabolized | Compound metabolized | Compound metabolized | Compound metabolized | Compound metabolized | Compound metabolized | Compound metabolized | Compound metabolized | Compound metabolized
